Assay: Silylating power: half-life of silylating agent in excess isopropyl alcohol at 35° C. (1H n.m.r.)
Format: physicochemical
Conditions: for Half-life in Excess Isopropanol: 0.1 ml. silylating agent in 0.5 ml. anhydrous isopropyl alcohol, 35° C., n.m.r.
Description: The compositions of this invention have unexpected silylating power. By the terms silylating and silylation it is meant a process wherein an active-hydrogen, i.e. one bond to an oxygen, sulfur or nitrogen atom, in a compound is replaced with a hydrocarbon-substituted silyl radical. Silylation, according to the process of this invention proceeds rapidly and, in many cases, essentially quantitatively thereby replacing an active-hydrogen with a methylsilacyclopentenyl radical. By silylating power it is meant the ability of a silylating agent to silylate isopropyl alcohol as indicated by the half-life of the silylating agent in excess isopropyl alcohol at 35° C., using standard chemical kinetic measuring methods hereinafter described. Silylating power is inversely related to said half-life.
Standard nuclear magnetic resonance (n.m.r.) tubes, 5 mm. O.D.×205 mm. long, were first charged with 0.1 ml. of the silylating agents listed in the Table and then with 0.5 ml. of anhydrous isopropyl alcohol using a dry box to insure anhydrous conditions. Immediately after the addition of isopropyl alcohol the tubes were stoppered, inverted at least once to mix the reactants, removed from the dry box, and, within 30 seconds after the addition of isopropyl alcohol, were placed in a varian A-60 ^1 H n.m.r. spectometer at 35° C. The n.m.r. spectrometer was preset to record the signal of the hydrogen atoms in the silicon-bonded methyl group. In repeat experiments the n.m.r. spectrometer was preset to record the signal of the hydrogen atoms in the methyl groups of N-methylacetamideor the nitrogen-bound hydrogen atom in epsilon-caprolactam. Where possible the reaction was followed by taking several readings of the appropriate n.m.r. signal intensity over a period of time.
The compositions of this invention have a half-life which is too short to measure by this technique since they are completely reacted before the reaction mixture is placed in the n.m.r. spectrometer.

Row | Molecule | silylating power (compared in words with triorganosilyl analogs, inversely related to half-life in excess isopropyl alcohol at 35° C.) | Half-life in Excess Isopropanol [min]
1 | methylsilacyclopentenyl-N-methylacetamide | greater than that of trimethylsilyl-N-methylacetamide, dimethylvinylsilyl-N-methylacetamide, dimethylphenylsilyl-N-methylacetamide and dimethyl-3,3,3-trifluoropropylsllyl-N-methylacetamide | 
2 | CC(=O)N(C)[Si](C)(C)CCC(F)(F)F |  | 40
3 | C=C[Si](C)(C)N(C)C(C)=O |  | 240
4 | CC(=O)N(C)[Si](C)(C)c1ccccc1 |  | 55

Source: patent US4167511A, “Methylsilacyclopentenyl-containing silylating agents and method therefor” (Dow Corning Corporation, priority 1978, dated 1979)
